Results taken from US10308700B2, “GLP-1 derivatives” (Novo Nordisk A/S, priority 2011, dated 2019).

Target: T1, human GLP-1 receptor (Homo sapiens, UniProt P43220)
T1 construct: expressed in transfected cells; host or cells: BHK467-12A (tk-ts13), baby hamster kidney; purified plasma membranes
Experiment: In vitro potency (CRE luciferase; whole cells)
Format: cell-based
Method: The purpose of this example is to test the activity, or potency, of the GLP-1 derivatives in vitro. The in vitro potency is the measure of human GLP-1 receptor activation in a whole cell assay.
In vitro potency was determined by measuring the response of human GLP-1 receptor in a reporter gene assay. The assay was performed in a stably transfected BHK cell line that expresses the human GLP-1 receptor and contains the DNA for the cAMP response element (CRE) coupled to a promoter and the gene for firefly luciferase (CRE luciferase). When the human GLP-1 receptor was activated it results in the production of cAMP, which in turn results in the luciferase protein being expressed. When assay incubation was completed the luciferase substrate (luciferin) was added and the enzyme converts luciferin to oxyluciferin and produces bioluminescence. The luminescence was measured and was the readout for the assay.
The cells were cultured at 5% CO2 in cell culture medium. They were aliquoted and stored in liquid nitrogen. Before each assay an aliquot was taken up and washed twice in PBS before being suspended at the desired concentration in the assay specific buffer.
• 1) Cell stocks were thawed in a 37° C. water bath. • 2) Cells were washed three times in PBS. • 3) The cells were counted and adjusted to 5×10^3 cells/50 μl (1×10^5 cells/ml) in assay medium. […]

T1 sequence (P43220 24-463): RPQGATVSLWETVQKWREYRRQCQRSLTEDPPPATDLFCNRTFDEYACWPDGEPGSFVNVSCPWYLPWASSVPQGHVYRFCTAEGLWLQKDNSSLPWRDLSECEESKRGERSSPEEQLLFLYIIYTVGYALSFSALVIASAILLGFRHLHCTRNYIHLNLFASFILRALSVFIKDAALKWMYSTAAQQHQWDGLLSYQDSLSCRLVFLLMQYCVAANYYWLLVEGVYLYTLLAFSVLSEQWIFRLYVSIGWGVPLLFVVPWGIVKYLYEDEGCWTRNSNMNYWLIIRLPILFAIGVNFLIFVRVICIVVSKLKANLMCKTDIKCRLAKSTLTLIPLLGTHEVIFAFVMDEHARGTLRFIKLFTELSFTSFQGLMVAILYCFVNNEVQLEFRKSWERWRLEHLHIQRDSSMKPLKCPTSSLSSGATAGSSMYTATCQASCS

For `CC[C@H](C)[C@H](NC(=O)[C@H](Cc1ccccc1)NC(=O)[C@H](CCC(=O)O)NC(=O)[C@H](CCCCNC(=O)[C@@H](N)CCCCNC(=O)[C@H](CO)NC(=O)CNC(=O)[C@H](CO)NC(=O)CC[C@H](NC(=O)CCCCCCCCCCCOc1ccc(C(=O)O)cc1)C(=O)O)NC(=O)[C@H](C)NC(=O)[C@H](C)NC(=O)[C@H](CCC(N)=O)NC(=O)CNC(=O)[C@H](CCC(=O)O)NC(=O)[C@H](CC(C)C)NC(=O)[C@H](Cc1ccc(O)cc1)NC(=O)[C@H](CO)NC(=O)[C@H](CO)NC(=O)[C@@H](NC(=O)[C@H](CC(=O)O)NC(=O)[C@H](CO)NC(=O)[C@@H](NC(=O)[C@H](Cc1ccccc1)NC(=O)[C@@H](NC(=O)CNC(=O)[C@H](CCC(=O)O)NC(=O)C(C)(C)NC(=O)[C@@H](N)Cc1c[nH]cn1)[C@@H](C)O)[C@@H](C)O)C(C)C)C(=O)N[C@@H](C)C(=O)N[C@@H](Cc1c[nH]c2ccccc12)C(=O)N[C@@H](CC(C)C)C(=O)N[C@H](C(=O)N[C@@H](CCCNC(=N)N)C(=O)NCC(=O)N[C@@H](CCCNC(=N)N)C(=O)N[C@@H](CCCCNC(=O)[C@@H](N)CCCCNC(=O)[C@H](CO)NC(=O)CNC(=O)[C@H](CO)NC(=O)CC[C@H](NC(=O)CCCCCCCCCCCOc1ccc(C(=O)O)cc1)C(=O)O)C(=O)O)C(C)C` [Example 29], the EC50 was 5 pM.
